Reference: patent US20070105790A1, “Pancreatic cancer treatment using Na+/K+ ATPase inhibitors” (Bionaut Pharmaceuticals, Inc., priority 2004, published 2007)
In brackets after ≈: the same amount, converted by molar mass. Like-named read-outs stand apart in the source and are kept apart here.

Columns and labels:
cancer of the pancreas [1] = details: previously untreated patients; cited from earlier work
pancreatic cancer [2] = details: cited from earlier work
VEGF = VEGF secretion by tumor cells; format: cell-based; details: FIG. 5
cancer cell lines = test: IC50 across several different cancer cell lines; format: cell-based; details: called predicted
cats = details: cited from earlier work
HIF-1α = HIF-1α induced by L-mimosone under normoxia in Hep3B cells; format: cell-based
Procedure: Abundance of HIF-1α and β-actin was determined by western blotting.

A549 Sentinel Line = test: Sentinel Line beta-galactosidase reporter assay (A549); format: cell-based; details: 40 hrs; for reporter activity, Gemcitabine-induced stress response: A549 sentinel line, FACS, FIG. 7; for cell death / reporter activity: Sentinel Lines; for reporter activity: FIG. 6
Procedure: The expression level of beta-galactosidase gene in sentinel lines was determined by using a fluorescent substrate fluorescein di-B-D-Galactopyranside (FDG, Marker Gene Tech, #M0250) introduced into cells by hypotonic shock. Cleavage by beta-galactosidase results in the production of free fluorescein, which is unable to cross the plasma membrane and is trapped inside the beta-gal positive cells. Briefly, the cells to be analyzed are trypsinized, and resuspended in PBS containing 2 mM FDG (diluted from a 10 mM stock prepared in 8:1:1 mixture of water: ethanol: DMSO). The cells were then shocked for 4 minutes at 37° C. and transferred to FACS tubes containing cold 1×PBS on ice. Samples were kept on ice for 30 minutes and analyzed by FACS in FL1 channel.
Sentinel Line cells with beta-galactosidase reporter gene were plated at 1×10^5 cells/10 cm dish. […] After 40 hrs, the cells were trypsinized and the expression level of reporter gene was determined by FDG loading.
The reporter activity was measured by FACS analysis.

[3] = cited from earlier work
[4] = cited from earlier work; remark: listed apart in the source
cancer of the pancreas [5] = details: previously treated with 5-FU; cited from earlier work
pancreatic cancer [6] = details: cited from earlier work; remark: listed apart in the source
[7] = tested on: rat mammary tumors induced by DMBA; details: relative to control group; cited from earlier work
[8] = tested on: pancreatic carcinoma cells carrying a K-Ras mutation; details: cited from earlier work
pancreatic lesions = details: cited from earlier work
pancreatic tumors = details: cited from earlier work
[9] = target: farnesyl protein transferase (FPTase) (Homo sapiens, UniProt P49354+P49356); details: cited from earlier work
Chain of farnesyl protein transferase (FPTase) (P49356 whole entry, one chain of several): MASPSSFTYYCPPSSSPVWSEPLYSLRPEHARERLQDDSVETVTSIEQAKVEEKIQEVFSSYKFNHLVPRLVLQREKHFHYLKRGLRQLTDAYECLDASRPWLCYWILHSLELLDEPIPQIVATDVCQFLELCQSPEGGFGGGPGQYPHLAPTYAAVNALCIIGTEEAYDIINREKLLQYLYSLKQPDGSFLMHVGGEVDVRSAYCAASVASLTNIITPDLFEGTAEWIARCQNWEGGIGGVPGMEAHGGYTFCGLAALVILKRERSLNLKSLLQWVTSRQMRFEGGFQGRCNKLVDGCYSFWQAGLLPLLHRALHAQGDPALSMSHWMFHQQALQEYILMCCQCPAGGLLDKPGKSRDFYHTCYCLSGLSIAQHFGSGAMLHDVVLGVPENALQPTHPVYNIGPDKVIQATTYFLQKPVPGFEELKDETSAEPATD

[10] = target: geranylgeranyl protein transferase (GGPTase) (Homo sapiens, UniProt P49354+P53609); details: cited from earlier work
Chain of geranylgeranyl protein transferase (GGPTase) (P53609 whole entry, one chain of several): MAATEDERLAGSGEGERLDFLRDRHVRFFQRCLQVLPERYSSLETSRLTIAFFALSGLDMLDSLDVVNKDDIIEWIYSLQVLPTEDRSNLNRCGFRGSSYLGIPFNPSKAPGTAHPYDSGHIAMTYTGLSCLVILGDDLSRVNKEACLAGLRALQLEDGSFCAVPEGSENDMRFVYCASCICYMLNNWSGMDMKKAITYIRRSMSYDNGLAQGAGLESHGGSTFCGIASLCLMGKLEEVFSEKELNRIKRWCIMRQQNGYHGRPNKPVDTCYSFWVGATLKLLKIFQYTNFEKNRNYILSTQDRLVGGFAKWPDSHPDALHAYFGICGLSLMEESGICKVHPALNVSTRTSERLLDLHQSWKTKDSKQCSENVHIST

[11] = tested on: end-stage pancreatic cancer; details: cited from earlier work
[12] = tested on: advanced pancreatic cancer; details: in vivo; cited from earlier work
[13] = tested on: C38 colon adenocarcinoma and PO3 pancreatic ductal adenocarcinoma; details: in vivo; cited from earlier work
pancreatic cancer [14] = details: 40 patients; cited from earlier work

**Q.** With `O=c1[nH]cc(F)c(=O)[nH]1` [5-FU, 5-fluorouracil] as the compound, how does the “patients alive at 1 year after starting therapy” value (cancer of the pancreas [1]) read?
**A.** The value was 1 in 50.

**Q.** What about the response rate (pancreatic cancer [2]) of the same compound?
**A.** Its response rate is “less than 20%”.

**Q.** For `C[C@@H]1O[C@@H](O[C@H]2C[C@@H](O)[C@]3(CO)[C@H]4[C@H](O)C[C@]5(C)[C@@H](C6=CC(=O)OC6)CC[C@]5(O)[C@@H]4CC[C@]3(O)C2)[C@H](O)[C@H](O)[C@H]1O` [BNC-1, ouabain], which “secretion of the angiogenesis factor VEGF” value (VEGF) is on record?
**A.** Its value is “inhibits”.

**Q.** And the IC50 (cancer cell lines)?
**A.** Its IC50 is 9 to 35 ng/mL (≈ 0.0154 to 0.0599 µM).

**Q.** What about the “toxic serum concentration at day 1” value (mice) of the same compound?
**A.** The value was “about 50+21 ng/ml”.

**Q.** What about the “therapeutic serum concentration required to achieve >60% TGI” value (steady state delivery in mice) of the same compound?
**A.** The value was “about 20+15 ng/ml”.

**Q.** What about the “toxicity, duodenal administration” value (cats) of the same compound?
**A.** Its value is 5.3 mg/kg.

**Q.** Which “HIF-1α accumulation by L-mimosone” value (HIF-1α; 200 μM L-mimosone, 18 h) does the source give for `C[C@@H]1OC(OC2C=C3CCC4C(CC[C@]5(C)[C@@H](c6ccc(=O)oc6)CC[C@]45O)[C@@]3(C)CC2)[C@H](O)[C@H](O)[C@H]1O` (stereo partly drawn) [BNC-4, proscillaridin] here?
**A.** Its value is “eliminated HIF-1α accumulation”.

**Q.** And the “HIF-1α accumulation by L-mimosone” value (HIF-1α; at the low concentration tested)?
**A.** The value was “did not appear to have an effect”.

**Q.** And the “secretion of the angiogenesis factor VEGF” value (VEGF)?
**A.** The value was “inhibits”.

**Q.** What about the “reporter activity, Gemcitabine-induced stress response” value (A549 Sentinel Line) of the same compound?
**A.** The value was “significantly shift the reporter activity to the left”.

**Q.** What about the IC50 (cancer cell lines) of the same compound?
**A.** The IC50 was 2 to 8 ng/mL (≈ 0.00377 to 0.0151 µM).

**Q.** And the “serum levels at the maximum toxic dose (MTD)” value (mice)?
**A.** The value was “about 518 (±121) ng/ml”.

**Q.** What about the “toxic serum concentration at day 1” value (mice) of the same compound?
**A.** The value was “about 518+121 ng/ml”.

**Q.** And the “steady state serum level at which anti-tumor activity was observed” value (xenograft nude mouse model)?
**A.** The value was “about 50 ng/mL”.

**Q.** And the “drug and metabolites excreted by the bile” value ([3]; in vivo)?
**A.** Its value is “Greater than 99%”.

**Q.** And the “measurable unconjugated drug as share of administered quantity” value ([3]; oral administration)?
**A.** The value was 7%.

**Q.** And the “time of second, longer-lasting peak” value ([3]; oral)?
**A.** Its value is “about 1 hour”.

**Q.** What about the “time of third peak after dosing” value ([3]; oral) of the same compound?
**A.** The value was “about 10 hours”.

**Q.** And the “toxicity, duodenal administration” value (cats)?
**A.** The value was 1.05 mg/kg.

**Q.** And the “tolerance in cancer patients” value ([4]; 0.5 mg/d i.v. for 4 d before surgery, 50 patients)?
**A.** The value was “well tolerated by all cancer patients”.

**Q.** What about the “patients taken off treatment for negative side effects” value ([4]; 1067 patients, up to 3 years) of the same compound?
**A.** Its value is 0.7%.

**Q.** What about the “reported cases in which therapy could be resumed” value ([4]; after a brief hiatus) of the same compound?
**A.** The value was over 95%.

**Q.** And the “doses producing typical intoxication symptoms” value ([4]; healthy individuals)?
**A.** Its value is “above 4 mg p.o./d”.

**Q.** For `N.N.O=C([O-])C1(C(=O)[O-])CCC1.[Pt+2]` [Carboplatin], which cell death (A549 Sentinel Line) is on record?
**A.** Its cell death is “increases”.

**Q.** And the reporter activity (A549 Sentinel Line)?
**A.** The reporter activity was “increases”.

**Q.** What does the source list for `Nc1ccn([C@@H]2O[C@H](CO)[C@@H](O)C2(F)F)c(=O)n1` [Gemcitabine]?
**A.** reporter activity, Gemcitabine-induced stress response (A549 Sentinel Line): elevated reporter activity; patients alive at 1 year after starting therapy (cancer of the pancreas [1]): 1 in 5; survival of the typical patient (cancer of the pancreas [1]): about 6 months; patients alive at 1 year (cancer of the pancreas [5]): 1 in 25; patients with symptom improvement for at least 1 month (cancer of the pancreas [5]): 1 in 4; survival of the typical patient (cancer of the pancreas [5]): 4 months; patients with clinical benefit (pancreatic cancer [6]; gemcitabine alone): 20-30%; 1-year survival rate (pancreatic cancer [6]; human, in vivo): 18%

**Q.** Which “reduction in incidence of breast tumors” value [7] does the source give for `CC(C)Cc1ccc(C(C)C(=O)O)cc1` (stereo not drawn) [Ibuprofen] here?
**A.** Its value is 40%.

**Q.** What about the “reduction in multiplicity of breast tumors” value [7] of the same compound?
**A.** The value was 52%.

**Q.** With `COc1cc2ncnc(Nc3ccc(F)c(Cl)c3)c2cc1OCCCN1CCOCC1` [Iressa] as the compound, how does the reporter activity (A549 Sentinel Line) read?
**A.** The reporter activity was “reduction in reporter activity”.

**Q.** For `C=C(C)[C@H]1CC=C(C)CC1` [Limonene], which growth reduction [8] is on record?
**A.** The growth reduction was “approximately 50%”.

**Q.** Which “hyperplastic and premalignant lesions” value (pancreatic lesions; 8.6 in high-fat group) does the source give for `CN(C)C(=N)N=C(N)N` [Metformin] here?
**A.** Its value is 1.8 lesions per hamster.

**Q.** And the malignant lesions (pancreatic lesions; drinking water for life, 50% in high-fat group)?
**A.** Its malignant lesions is “none were found”.

**Q.** With `C=C(C)[C@@H]1CC=C(CO)CC1` [Perillyl alcohol] as the compound, how does the tumors completely regressed (pancreatic tumors; hamster, in vivo) read?
**A.** Its tumors completely regressed is 16%.

**Q.** And the “growth of pancreatic tumors” value (pancreatic tumors; versus controls)?
**A.** The value was “less than half that of controls”.

**Q.** And the “inhibition of Ras prenylation” value [9]?
**A.** The value was 17%.

**Q.** What about the “inhibition of RhoA prenylation” value [10] of the same compound?
**A.** The value was 28%.

**Q.** Which results are given for `CC[C@@]1(O)C(=O)OCc2c1cc1n(c2=O)Cc2cc3c([N+](=O)[O-])cccc3nc2-1` [Rubitecan, 9-nitrocamptothecin]?
**A.** nonresponders ([11]; 60 patients): 36.6%; patients who responded favorably ([11]; 60 patients): 31.7%; patients with stabilized disease ([11]; 60 patients): 31.7%; survival ([11]; nonresponders): 6.8 months; median survival ([11]; responders): 18.6 months; median survival ([11]; stabilized disease): 9.7 months

**Q.** Which results are given for `Cn1c(=O)c2c(ncn2C)n(C)c1=O` [caffeine]?
**A.** median duration of survival [12]: 5 months; patients with objective responses [12]: 5.5%

**Q.** What does the source list for `CC(=O)O[C@@]12CO[C@@H]1C[C@H](O)[C@@]1(C)C(=O)[C@H](O)C3=C(C)[C@@H](OC(=O)[C@H](O)[C@@H](NC(=O)OC(C)(C)C)c4ccccc4)C[C@@](O)([C@@H](OC(=O)c4ccccc4)[C@H]21)C3(C)C` [docetaxel, Docetaxel]?
**A.** complete regressions [13]: 80%; median duration of response (pancreatic cancer [14]): 5.1 months; partial response (pancreatic cancer [14]): 15%; stable disease (pancreatic cancer [14]): 38%

**Q.** What does the source list for `O=C1c2c(O)ccc(O)c2C(=O)c2c(NCCNCCO)ccc(NCCNCCO)c21` [mitoxanthrone, mitoxantrone]?
**A.** cell death (A549 Sentinel Line): increases; reporter activity (A549 Sentinel Line): increases

**Q.** For `CC(=O)O[C@H]1C(=O)[C@@]2(C)[C@H]([C@H](OC(=O)c3ccccc3)[C@]3(O)C[C@H](OC(=O)[C@H](O)[C@@H](NC(=O)c4ccccc4)c4ccccc4)C(C)=C1C3(C)C)[C@]1(OC(C)=O)CO[C@@H]1C[C@@H]2O` [paclitaxel], which cell death (A549 Sentinel Line) is on record?
**A.** Its cell death is “increases”.

**Q.** And the reporter activity (A549 Sentinel Line)?
**A.** Its reporter activity is “increases”.
